Experimental data reported in paper PMC8567874, “Metronomic delivery of orally available pemetrexed-incorporated colloidal dispersions for boosting tumor-specific immunity” (Drug Delivery, 2021).
Read-outs that look alike come from different tables or passages of the source.

What was measured:
[1] = test system: CT26.CL25 tumor-bearing mice; test: In vivo immunostimulatory effects in CT26.CL25 tumor-bearing mice (flow cytometry, ELISPOT, slide staining); details: 3 weeks, PMX 150 mg/kg IV every 3 weeks, PMX/DL-CD oral daily 20 mg/kg PMX
Protocol: To investigate in vivo immunostimulatory effects of oral metronomic PMX, BALB/c mice were inoculated with 1 × 10^6 of CT26.CL25 cells per mouse. The mice were randomly divided into three groups (10 mice per group) once the tumor volume had reached 50–70 mm^3: control (untreated), PMX-IV (150 mg/kg PMX administered IV every 3 weeks), and PMX/DL-CD (oral PMX/DL(1:1)-CD administered daily, equivalent to 20 mg/kg PMX). The mice were sacrificed 3 weeks after treatment and the tumors were isolated. The tumor tissues were converted into single cells by passing them through a 40-µm filter after digestion with collagenase A (0.2% w/v), DNAse (30 U/mL), and dispase (10 U/mL) in MACS (gentleMACS Octo Dissociator with Heaters; Miltenyi Biotec, Bergisch Gladbach, Germany) at 37 °C for 45 min. Some cells were collected for tumor-infiltrating lymphocyte analyses and centrifuged using histopaque-1077 for 20 min at 450 g to isolate the lymphocytes. The isolated cells were then stained with fluorescence-conjugated antibodies and incubated. The cells were washed and suspended in FACS buffer and then collected into FACS tubes. The cells were then analyzed using flow cytometry (FACS Aria II) and the data were analyzed using FlowJo software (FlowJo LLC, Ashland, OR, USA). Cell populations were acquired by gating, as follows: tumor-infiltrating lymphocytes (DAPI^−/CD45^+), helper T cells (DAPI^−/CD45^+/CD3^+/CD4^+), PD-L1-expressing tumor cells (DAPI^−/CD45^−/PD-L1^+), proliferating cytotoxic T cells (DAPI^−/CD45^+/CD3^+/CD8^+/ki67^+), and IFN-γ-secreting T cells (DAPI^−/CD45^+/CD3^+/CD8^+/IFN-γ^+).
Lymphocytes were isolated from the tumors using the procedure described previously; 2 × 10^5 tumor lymphocytes per well, along with β-gal (5 µg/mL), were incubated on pre-coated 96-well plates in CTL test medium for 24 h at 37 °C with 9% CO2. […] After the procedure, the plates were scanned and the spots were counted in the ELISpot counter (Immunospot® S6 ULTIMATE analyzer; Cellular Technology Ltd.). […]

[2] = In situ single-pass rat intestinal perfusion; format: in vivo; details: other: in situ single-pass intestinal perfusion; for concentration at 15 min / concentration at 30 min / concentration at 45 min / concentration at 60 min / concentration at 75 min / concentration at 90 min / concentration at 105 min / concentration at 120 min: rat, outlet intestinal perfusate, 100 μg/mL, rat intestinal perfusion
Protocol: The in situ single-pass intestinal effective permeabilities (Peff) of PMX, PMX/DL(1:1), PMX/DL(1:2), PMX/DL(1:1)-CD, and PMX/DL(1:2)-CD were investigated in rats. The rats were fasted overnight for 12–16 h with free access to water before the experiment and then anesthetized by intramuscular injection of tiletamine·HCl–zolazepam mixture (1:1 [w/w]; 40 mg/kg). With the animal in the supine position, the abdominal cavity was opened using a midline longitudinal incision, and the intestine (duodenum, jejunum, and ileum) was exposed and subsequently intubated at the two ends with a polypropylene perfusion tube connected to a peristaltic pump (Harvard Apparatus, Holliston, MA, USA). After covering the entire excised area with a cotton pad soaked with warm normal saline, the cannulated intestinal segments were flushed with blank perfusion buffer at 37 °C for 30 min, at a constant flow rate of 0.5 mL/min, to remove residual intestinal contents. Then, drug solutions of PMX, PMX/DL(1:1), PMX/DL(1:2), PMX/DL(1:1)-CD, or PMX/DL(1:2)-CD (equivalent to 100 μg/mL PMX) were perfused through the intestinal lumen at 37 °C and a constant flow rate of 0.2 mL/min. After allowing 30 min to achieve a steady-state, outlet perfusate was collected every 15 min for 120 min. In addition, to assess the reliability of the perfusion study, 100 μg/mL fluorescein diluted in perfusion buffer was perfused separately under the same conditions and the collected samples were analyzed at excitation/emission wavelengths of 494/512 nm using a microplate reader (PerkinElmer multimode plate reader; PerkinElmer, Waltham, MA, USA) as a low-permeability marker. During the experiment, all animals were kept on heated pads under a heat lamp to maintain a normal body temperature. At the end of the experiment, the lengths and radii of the cannulated intestinal segments were measured, taking care to avoid stretching them. The collected samples were then filtered using 0.45-μm PVDF filters and stored at −20 °C before analyses. The outlet concentration of PMX in the perfusate was analyzed by HPLC as described above. In addition, the errors caused by rat intestinal water absorption and secretion during perfusion were corrected by the net water flux (ratio of the […] perfusate flows, Qout/Qin) and the corrected drug concentration in perfusate for each formulation was calculated based on the following equation (i.e. gravimetric method): Cout,corr = Cout × (Qout/Qin), where Cout,corr is the corrected outlet PMX concentration (µg/mL), Cout is the PMX outlet concentration (µg/mL), Qin (mL/min) is the flow rate entering the intestine, and Qout (mL/min) is the measured perfusate exit flow (net weight/15 min, assumed density of 1.0 g/mL) for the specified time interval. After correction, the Peff was calculated using the equation: Peff = Qin/A × ln(Cout,corr/Cin), where A is the intestinal area available for absorption (2πrl) based on its length (l) and radius (r).

[3] = read-out: Corrected outlet PMX concentration (Cout,corr)
[4] = read-out: Outlet concentration of PMX (Cout)

In the case of `Nc1nc2[nH]cc(CCc3ccc(C(=O)N[C@@H](CCC(=O)O)C(=O)O)cc3)c2c(=O)[nH]1` [PMX, Pemetrexed], the “CD4+ T-cell population in tumor compared to control” value [1] is reported as “substantially increased”, the “CD45+ cell infiltration in tumor compared to control” value [1] is reported as “slightly increased” and the “PD-L1 expression in tumor cells, times greater compared to the control group” value [1] is reported as “two”. For the same molecule, the Papp at 120 min, 100 μg/mL ([2]; rat intestine, n = 4, read-out: Effective permeability (Peff)) was 83 ± 4.4 ×10⁻⁶ cm/s, the concentration at 15 min [2, 3] was 93.8 ± 2.73 µg/mL and the concentration at 15 min [2, 4] was 93.1 ± 1.73 µg/mL. For the same molecule, the concentration at 30 min [2, 3] was 96 ± 1.36 µg/mL, the concentration at 30 min [2, 4] was 93.2 ± 0.04 µg/mL and the concentration at 45 min [2, 3] was 94.1 ± 0.46 µg/mL. The concentration at 45 min [2, 4] was 92.5 ± 0.51 µg/mL, the concentration at 60 min [2, 3] was 95.4 ± 0.19 µg/mL and the concentration at 60 min [2, 4] was 94.9 ± 0.19 µg/mL. It also gave a concentration at 75 min [2, 3] of 95.8 ± 0.87 µg/mL, a concentration at 75 min [2, 4] of 94.7 ± 1.19 µg/mL and a concentration at 90 min [2, 3] of 96.5 ± 0.54 µg/mL. It also gave a concentration at 90 min [2, 4] of 95.3 ± 0.87 µg/mL, a concentration at 105 min [2, 3] of 95.8 ± 0.27 µg/mL and a concentration at 105 min [2, 4] of 94.7 ± 1.92 µg/mL. It also gave a concentration at 120 min [2, 3] of 96.4 ± 1.52 µg/mL and a concentration at 120 min [2, 4] of 94.7 ± 1.82 µg/mL.
